Values of other authors in US20180080913A1, “SCREENING METHOD FOR MULTI-TARGET DRUGS AND/OR DRUG COMBINATIONS” (Wuhan Bio-links Technology Co., Ltd, priority 2015, published 2018).

Tested on: human gastric barcinoma cell line MGC803
Details: combination of d-limonene and berberine, active ingredients of Zuo Gui Wan

SMILES	promotion of gastric cancer cell apoptosis
C=C(C)[C@H]1CC=C(C)CC1 [d-limonene]	synergistically promote gastric cancer cell apoptosis
COc1ccc2cc3[n+](cc2c1OC)CCc1cc2c(cc1-3)OCO2 [berberine]	synergistically promote gastric cancer cell apoptosis
